“Also recorded” adds a separate entry of the source. Read-outs that look alike come from different tables or passages of the source.
Legend:
[1] = test system: C. elegans strain DA2122 (LGG-1::GFP); assay: Autophagy induction, LGG-1::GFP dots in C. elegans; format: in vivo; settings: 50 μM from eggs to second day of adulthood; FIGS. 9A-9B
Procedure: C. elegans strains were cultured at 20° C. on nematode growth media (NGM) agar plates seeded with OP50 bacteria and containing 50 μM urolithin A or a corresponding concentration of DMSO as a control. The worms were treated from eggs to the second day of the adulthood. The strains used were the DA2122 (adIs2122[lgg-1::GFP+rol-6(su1006)]), which is a transgenic line expressing the LGG-1 protein (homolog of LC3 in human) fused with the green fluorescent protein (GFP). For picture acquisition, worms were immobilized with tetramisole (Sigma) and mounted on 6% agarose pads on glass slides. Images were acquired using Zeiss LSM 700 upright confocal microscope (Carl Zeiss A G, Oberkochen, Germany) from the same part of C. elegans. For each condition multiple worms were observed and imaged with the same initial parameters. Image processing and quantification of autophagic events was performed with the Fiji software.

[2] = test system: human primary skeletal muscle cells; assay: Autophagy western blot in human primary myoblasts; format: cell-based; settings: 10 μM, 20 μM, and 50 μM, 16 hours
Procedure: Human primary skeletal myocytes were cultured in vitro and exposed to increasing concentrations of urolithin A, including 10 μM, 20 μM, and 50 μM for 16 hours. Human skeletal myoblasts were grown in DMEM plus 2% horse serum. Control cells were treated with DMSO at an equivalent final concentration for the same period and served as the untreated control.
At the end of treatment, cells were lysed with RIPA buffer and applied to SDS-PAGE and analyzed by western blot. Protein expression levels were examined for autophagy-related proteins LC3-I and LC3-II (Cell Signaling antibody #4108), p62 (Cell Signaling antibody #5114), AMPKα (Cell Signaling antibody #2603), and p-AMPKα(Cell Signaling antibody #2531). The housekeeping protein, R-actin (Cell Signaling Antibody #4967) level was measured as a loading control.

[3] = test system: C. elegans fed vps-34 RNAi; assay: Lifespan with RNAi against vps-34; format: in vivo; settings: 50 μM; vs empty vector; FIG. 10B
Procedure: Lifespan tests were performed as described. Mouchiroud L et al. (2011) Aging Cell 10:39-54. Briefly, worms were observed using a Nikon SMZ1500 stereomicroscope (Nikon, Melville, NY, USA). Briefly, 10 L4 worms were transferred on plates containing NGM medium with vehicle (DMSO 0.1%, final concentration) or urolithin A dissolved in DMSO (final concentration 50 μM) and seeded with E. coli RNAi clones as indicated. After 3 days (corresponding to day 0), newly developed 60-100 L4 worms were used per condition, scored and transferred to fresh plates every 3 days starting from day 1 (young adult worms). All lifespan experiments were performed at 20° C.
Survival analyses were performed using the Kaplan Meier method and the significance of differences between survival curves calculated using the log rank test. Differences between two groups were assessed using two-tailed t-tests. Analysis of variance, assessed by Bonferroni's multiple comparison test, was used when comparing more than two groups. The statistical software used was GraphPad Prism 5 (GraphPad Software, Inc.) and all p-values <0.05 were considered significant.
Gene silencing was carried out as previously described by using the RNA interference (RNAi) process. Mouchiroud L et al. (2011) Aging Cell 10:39-54. In C. elegans, RNAi is made by feeding. […]

[4] = test system: aak-2(ok524) mutant C. elegans; format: in vivo; settings: aak-2 (o524); for Lifespan extension compared to control (%): 50 μM UA vs 1% DMSO
Procedure: Lifespan assays were performed with (A) wild-type (N2), (B) sir-2.1(ok434) mutant, (C) aak-2(ok524), (D) daf-16(mu86), (E) eat-2(ad465) and (F) daf-2(e1370) mutant strains of C. elegans maintained during their full life on plates supplemented with either 50 μM of urolithin A or with a control treatment and seeded with OP50 bacteria. Control plates without urolithin A contained an equivalent concentration of DMSO. Worm lifespan assays were performed at 20° C.
aak-2/AMPK: aak-2 encodes the mammalian homolog of the AMP-dependent kinase AMPK in C. elegans.

[5] = test system: gastrocnemius muscles of aged C57BL/6J mice; assay: Autophagy in skeletal muscle of aged mice; format: in vivo, mouse; settings: 50 mg/kg/day in food, 34 weeks
Procedure: Locomotor activity may be also assessed by measuring animal movements using infrared detection. To determine the effects of urolithin A on spontaneous locomotor activity in aged animals, 16-month-old C57BL/6J mice were treated with either a standard rodent diet or a diet containing urolithin A mixed with food to reach a dosing of 50 mg/kg/day delivered to mice. Following 34 weeks of treatment with urolithin A, mice were placed in a locomotor activity monitoring system, TSE Systems. Infrared transmitters and receivers are placed in the x, y, and z axis. Interruption of the infrared beams in the x, y axis by the passage of the mouse, allows for a measurement of the horizontal movement (ambulation). Interruption of the infrared beams in the z axis by the mouse, allows for the measurement of rearing behavior. Each beam interruption results in one count being recorded. Total counts were measured for each 30 minute period over a two day period. The total counts observed during the 12 hour dark period, which corresponds to the time of highest activity in mice, were summed for each animal.
Following 34 weeks of treatment, the mice from Example 19 were sacrificed and the organs were collected. The gastrocnemius muscles were assessed for the presence of autophagy by the assessment of the change in the ratio of the autophagy markers LC3 and p62 using western blot analysis. Each lane corresponds to a muscle sample from an individual mouse. The ratio of LC3-II/LC3-I increased in the muscles of urolithin A (UA)-treated mice versus untreated mice. This was accompanied by a decrease in the levels of p62 in the muscles of UA treated versus untreated mice. These shifts in the levels of LC3 and p62 in the muscle of mice are consistent with an increase in the level of autophagy taking place.

[6] = test system: aged C57BL/6J mice; assay: Running wheel activity in aged high fat diet mice; format: in vivo, mouse; settings: 50 mg/kg/day, 30 weeks, dark phase of day 2, FIG. 21
Procedure: To examine the effects of urolithin A treatment on motor activity in aged mammals 17-month-old C57BL/6J mice were treated with either a high fat rodent diet or a high fat rodent diet containing urolithin A mixed with food to reach a dosing of 50 mg/kg/day delivered to the mice.
Following 30 weeks of treatment with urolithin A, mice were housed individually and a 23 cm diameter running wheel was placed in the cage of each mouse. Spontaneous exercise activity was measured continuously over a two day period allowing the capture of the circadian rhythm of the exercise activity. Afterwards, mice were returned to their home cages.
Mice became habituated to the presence of the activity wheel on day 1. To measure the effect of urolithin A treatment on activity as well as muscle function, the cumulative distance that animals covered during the peak running period (dark phase) of day 2 was measured.

O=c1oc2cc(O)ccc2c2ccc(O)cc12 [Urolithin A, urolithin A]
number of autophagic events (LGG-1::GFP dots per focal field) [1]: increases the number of autophagic events | levels of p62 [2]: decrease | ratio of pAMPKα/AMPKα [2]: increasing several fold | ratio of LC3-II to LC3-I ([2]; FIG. 17): dose-dependent increase | lifespan extension by urolithin A under vps-34 RNAi [3]: suppressed; also recorded: totally suppress the lifespan phenotype | Median lifespan ([4]; 50 μM UA): 18 days | Lifespan extension compared to control (%) [4]: 12.5% | Lifespan extension compared to control (%) ([4]; listed as UA): +12.5% | levels of p62 [5]: decreased | ratio of p-AMPKα/AMPKα [5]: increase | ratio of LC3-II/LC3-I ([5]; FIG. 24): increased | levels of p62 ([5]; listed as UA): decrease | increase in cumulative distance run [6]: 57%

Reference: patent US11931335B2, “Enhancing autophagy or increasing longevity by administration of urolithins or precursors thereof” (Amazentis SA, priority 2012, dated 2024)
